Reference: ChEMBL document CHEMBL1152407, “Identification of inhibitors of checkpoint kinase 1 through template screening” (J Med Chem, 2009)

Columns and labels:
[1] = target: T1, Serine/threonine-protein kinase Chk1 (Homo sapiens) (UniProt O14757); experiment: Inhibition of CHK1 at 250 uM by alphascreen assay
T1 sequence (whole entry): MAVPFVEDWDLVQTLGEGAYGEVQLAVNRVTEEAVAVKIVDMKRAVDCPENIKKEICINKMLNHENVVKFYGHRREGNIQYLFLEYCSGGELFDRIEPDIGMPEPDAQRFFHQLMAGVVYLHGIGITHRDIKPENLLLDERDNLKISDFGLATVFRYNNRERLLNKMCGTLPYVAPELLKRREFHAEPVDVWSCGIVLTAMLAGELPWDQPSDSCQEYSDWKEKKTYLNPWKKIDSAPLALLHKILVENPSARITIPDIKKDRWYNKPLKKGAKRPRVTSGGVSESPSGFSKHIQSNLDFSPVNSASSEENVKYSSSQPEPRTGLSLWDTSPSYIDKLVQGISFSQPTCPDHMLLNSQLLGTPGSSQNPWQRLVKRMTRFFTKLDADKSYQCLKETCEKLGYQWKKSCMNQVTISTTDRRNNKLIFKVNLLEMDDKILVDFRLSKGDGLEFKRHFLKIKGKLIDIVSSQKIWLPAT

[2] = target: T1, Serine/threonine-protein kinase Chk1 (Homo sapiens); experiment: Inhibition of CHK1 at 250 uM by alphascreen assay in presence of 0.01% Triton-X100
[3] = target: T1, Serine/threonine-protein kinase Chk1 (Homo sapiens); experiment: Inhibition of CHK1 assessed as CDC25C peptide phosphorylation at 100 uM by DELFIA assay
[4] = target: Cyclin-dependent kinase 1 (Homo sapiens) (UniProt P06493); experiment: Inhibition of CDK1 assessed as Rb (ser780) biotinylated peptide phosphorylation at 100 uM by DELFIA assay
Sequence of Cyclin-dependent kinase 1 (Homo sapiens) (P06493 whole entry, looked up): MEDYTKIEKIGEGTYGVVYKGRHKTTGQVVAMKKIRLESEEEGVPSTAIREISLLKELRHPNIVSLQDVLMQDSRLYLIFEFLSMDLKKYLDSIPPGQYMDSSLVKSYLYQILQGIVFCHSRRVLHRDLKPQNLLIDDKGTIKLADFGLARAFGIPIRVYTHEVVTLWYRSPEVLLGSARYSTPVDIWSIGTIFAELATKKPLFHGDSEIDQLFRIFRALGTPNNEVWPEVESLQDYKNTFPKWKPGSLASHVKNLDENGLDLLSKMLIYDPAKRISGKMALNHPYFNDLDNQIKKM

[5] = Selectivity ratio of IC50 for CHK2 to IC50 for CHK1
[6] = target: Serine/threonine-protein kinase Chk2 (Homo sapiens, UniProt O96017)
Sequence of Serine/threonine-protein kinase Chk2 (O96017 whole entry): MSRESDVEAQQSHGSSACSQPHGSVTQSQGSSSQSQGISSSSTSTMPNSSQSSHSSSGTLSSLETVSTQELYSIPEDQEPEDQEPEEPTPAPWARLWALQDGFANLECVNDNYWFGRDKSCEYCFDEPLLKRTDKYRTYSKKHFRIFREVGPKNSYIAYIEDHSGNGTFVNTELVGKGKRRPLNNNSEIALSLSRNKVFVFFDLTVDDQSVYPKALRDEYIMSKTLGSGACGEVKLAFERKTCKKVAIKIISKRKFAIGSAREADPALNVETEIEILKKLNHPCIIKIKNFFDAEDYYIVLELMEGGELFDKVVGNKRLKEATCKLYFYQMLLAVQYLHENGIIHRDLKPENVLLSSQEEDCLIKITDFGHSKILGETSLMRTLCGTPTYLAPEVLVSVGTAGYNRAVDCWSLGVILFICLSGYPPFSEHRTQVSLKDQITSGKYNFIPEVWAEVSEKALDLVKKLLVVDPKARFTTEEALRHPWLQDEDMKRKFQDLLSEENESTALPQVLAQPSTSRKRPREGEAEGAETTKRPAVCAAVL
Description: Inhibition of CHK2 assessed as CDC25C peptide phosphorylation by DELFIA assay

HT-29 = experiment: cells; settings: Homo sapiens, HT-29, 96 h
Description: Cytotoxicity against human HT-29 cells after 96 hrs by SRB assay

[7] = target: T2, Serine/threonine-protein kinase Chk1 (Homo sapiens, UniProt O14757)
T2 sequence (O14757 whole entry): T1 sequence (whole entry)
Description: Inhibition of CHK1 assessed as CDC25C peptide phosphorylation by DELFIA assay

Clc1ccc2c(Nc3ccccc3)ncnc2c1
inhibition [1]: 41.9%
inhibition [2]: 41.5%

O=c1[nH]cnc2sc3c(c12)CCCC3
inhibition [1]: 38.5%
inhibition [2]: 45.3%

CC(=O)Nc1nc2c(s1)C(=O)NCCC2
inhibition [1]: 51.4%
inhibition [2]: 43.1%
inhibition [3]: 27%

NCC1CN(c2c(Br)cnc3[nH]ncc23)CCO1 (stereo not drawn)
inhibition [4]: 37%
Ratio IC50 [5]: 8
IC50 [6]: 7.4 µM
GI50 (HT-29): 16 µM

c1nc(N2CCOCC2)c2nc[nH]c2n1
inhibition [1]: 75.7%
inhibition [2]: 63%

NCC1CN(c2c(-c3ccsc3)cnc3[nH]ncc23)CCO1 (stereo not drawn)
inhibition [4]: 48%
Ratio IC50 [5]: 8
IC50 [7]: 0.29 µM
IC50 [6]: 4.6 µM
GI50 (HT-29): 10.5 µM

O=C(O)C1COCCN1c1ncnc2[nH]cnc12 (stereo not drawn)
inhibition [3]: 12%

COc1cccc(CNc2ncnc3cc(OC)c(OC)cc23)c1
inhibition [1]: 50.1%
inhibition [2]: 52.8%

O=C(O)CC1CN(c2ncnc3[nH]cnc23)CCO1 (stereo not drawn)
inhibition [3]: 22%

NC[C@@H]1CN(c2c(-c3ccccc3)cnc3[nH]ncc23)CCO1
inhibition [4]: 43%
IC50 [6]: 5.9 µM
GI50 (HT-29): 40 µM

CC(C)(C)OC(=O)NCC1CN(c2ncnc3[nH]cnc23)CCO1 (stereo not drawn)
inhibition [3]: 43%

CCCNc1nc2ccccc2c(=O)[nH]1
inhibition [1]: 40.9%
inhibition [2]: 14.2%
inhibition [3]: 0%

CC(C)(C)Nc1nc(N)c(C(=O)c2ccccc2)s1
inhibition [1]: 36.9%
inhibition [2]: 39.9%
inhibition [3]: 33%

CSC1=N/C(=C\c2cccs2)C(=O)N1
inhibition [1]: 35.7%
inhibition [2]: 33.5%
inhibition [3]: 32%

Fc1ccc(-c2onc3ccc(-c4cc[nH]n4)cc23)cc1
inhibition [1]: 26.4%
inhibition [2]: 6.5%

CCOC(=O)c1cnc2[nH]ncc2c1N1CCOC(CN)C1 (stereo not drawn)
inhibition [4]: 3%
